Here are results for 3 compounds from paper PMC8312697, “Mechanistic Investigations Support Liver Safety of Ubrogepant” (Toxicological Sciences, 2020).

The test system of data set [1] is HepG2 cell. In words: HepG2 cell glucose/galactose shift model. Format: cell-based, human.
Data set [2] deals with mitochondrial electron transport chain (ETC). In words: MITOsym/DILIsym fit of OCR data (ETC inhibition parameters). Also on record: species or system human. As to conditions: for DILIsym ETC inhibition constant: MITOsym value × scaling factor of 34.7. The method, then: MITOsym® parameters were then translated to DILIsym® parameters using a scaling factor calculated using classic exemplar compounds that perturb different pathways of mitochondrial respiration (e.g., rotenone for ETC inhibition, FCCP for uncoupling).
The parameter values for ubrogepant were determined by reproducing the cell count-corrected OCR data in MITOsym®, a mechanistic model of mitochondrial function in the in vitro setting. MITOsym parameters were then translated to DILIsym parameters using a scaling factor calculated using classic exemplar compounds that perturb different pathways of mitochondrial respiration (e.g., rotenone for ETC inhibition, FCCP for uncoupling).
Mitochondrial toxicity parameter values for MK-3207 were determined by reproducing the cell count-corrected OCR response to MK-3207 dosing in both MITOsym and DILIsym. The ETC inhibition coefficient from the MITOsym parameters was then translated to a DILIsym parameter using a scaling factor calculated using classic exemplar compounds that perturb different pathways of mitochondrial respiration (e.g., rotenone for ETC inhibition, FCCP for uncoupling), similar to ubrogepant. The maximum inhibition potency from the DILIsym fit was combined with this value in the final parameter set.

For data set [3], the system named is RNS/ROS production. In words: DILIsym fit of ROS data (oxidative stress parameter). Further details: species or system human. As to conditions: fit of 24-hour HepG2 ROS data. The source says:
Parameter values for telcagepant-mediated induction of oxidative stress were identified by simulating the experimental data in DILIsym® using a DILIsym® dosing scheme meant to represent in vitro conditions.
Parameter values for ubrogepant-mediated induction of oxidative stress were identified by simulating the experimental data in DILIsym using a DILIsym drug exposure scheme designed to represent in vitro conditions.
Parameter values for MK-3207-mediated induction of oxidative stress were identified by simulating the experimental data in DILIsym using a DILIsym drug exposure scheme meant to represent in vitro conditions. Intracellular compound concentrations were also assayed in identical cell cultures; the experimental method was the same as that described above for ubrogepant.

In data set [4] the test system is HepG2 cells. The experiment in a line: Oxidative stress assay (ROS, DHE fluorescence). Format: cell-based, human. Here is the method:
Three independent studies in triplicate were conducted on HepG2 cells, and two independent studies in triplicate were conducted on primary human hepatocytes.
To assess the potential for ubrogepant to induce oxidative stress, assays to measure formation of reactive oxygen species (ROS) were conducted by Cyprotex. HepG2 cells were cultured in triplicate with ubrogepant for 6 or 24 hours at concentrations ranging from 0.01 – 150 μM, and ROS formation was assayed by DHE fluorescence assay. HepG2 cells have reduced metabolic activity relative to primary human hepatocytes.^3,4 Three independent studies in triplicate were conducted on HepG2 cells.
To assess the potential for MK-3207 to induce oxidative stress, assays to measure formation of ROS were conducted by Cyprotex. HepG2 cells were cultured in triplicate with MK-3207 for 6 or 24 hours at concentrations ranging from 0.01 – 150 μM and ROS formation was assayed by DHE fluorescence assay. HepG2 cells have reduced metabolic activity relative to primary human hepatocytes.^3,4 Three independent studies in triplicate were conducted.

The target in data set [5] is T1, CYP3A4 (Homo sapiens, UniProt P08684).
T1 construct: expressed in transfected cells; host or cells: HEK293 Flp-In host cell line (Invitrogen/ThermoFisher Flp-In T-REx system)
The experiment in a line: HEK293/CYP3A4 assay of Nrf2 stabilization and CYP3A4 degradation. Format: cell-based. As to conditions: HEK293 cells with inducible CYP3A4, Western blot. The source says: Specifically, these assays evaluated the potential of the 3 different CGRP receptor antagonists to form reactive metabolites that promote the stabilization of Nrf2 or covalently bind to CYP3A4, triggering its subsequent time-dependent degradation, as assessed by Western blot. To seek further confirmatory evidence for reactive metabolite formation, a HEK293 cell line expressing doxycycline inducible CYP3A4 P450 enzyme expression construct with a Flag tag epitope fused to the C-terminus was constructed and cloned using the Invitrogen/ThermoFisher Scientific Flp-In T-TEx system and the HEK293 Flp-In host cell line per standard protocol. […] Alternatively, this simplified single CYP test model might not allow for Nrf2 stabilization if sufficient quantities of the chemically reactive metabolite cannot be generated by CYP3A4, or cannot escape the catalytic site of CYP3A4, which would appear on Western blot using anti-Flag antibody as time-dependent CYP3A4 degradation.

Data set [6] concerns rats. The experiment in a line: Conventional nonclinical toxicology study, rat. The format is in vivo. The method, then:
Conventional animal toxicology studies in rats and monkeys were performed by Merck & Co, Inc (West Point, Pennsylvania).

Data set [7] in a line: Compound solubility limit in transporter assay buffer. The format is physicochemical. The note with it: read-out: upper limit of compound solubility. The method, then:
To assess the functional impact of ubrogepant on the human ABC efflux transporters BSEP, MRP3, and MRP4, in vitro vesicular transport inhibition assays were conducted by Solvo Biotechnology (Szeged, Hungary). The ability of ubrogepant to inhibit the BSEP-mediated transport (and accumulation) of a probe substrate was tested at concentrations ranging from 0.04 – 30 μM, where the latter defined the upper limit of compound solubility in the BSEP assay buffer. For the MRP3 and MRP4 vesicle-based transporter assessments, ubrogepant concentrations of 0.1 to 70 μM were used. To assess the functional impact of ubrogepant on the human SLC (uptake) transporter NTCP, in vitro experiments were performed using HEK293 cells stably expressing NTCP. The ability of ubrogepant to inhibit NTCP-mediated uptake (and accumulation) of taurocholate was tested at concentrations ranging from 0.04 – 30 μM.
To assess the functional impact of MK-3207 on the human ABC efflux transporters BSEP, MRP3 and MRP4, in vitro vesicular transport inhibition assays were conducted by Solvo Biotechnology (Szeged, Hungary) and overseen by DSSI. BSEP transport was assessed in the presence of 0.5-30 µM MK-3207; MRP3 and MRP4 transport was assessed in the presence of 0.11-80 µM MK-3207. The upper limits of these ranges were determined by compound solubility in each assay buffer. NTCP transporter inhibition was assessed in NTCP-expressing HEK293 cells in the presence of 0.03 – 25 µM MK-3207.

Data set [8] deals with T2, CGRP receptor (Homo sapiens, UniProt O60894+Q16602).
T2 construct: expressed in transfected cells; host or cells: HEK293
The experiment in a line: CGRP-stimulated cAMP response in HEK293 cells. Format: cell-based. As to conditions: read-out: Potency IC50.

Setting [9] is: MRP3 and MRP4 assay buffer, aqueous buffer.

pIC50: −log10 of the molar value. In brackets after ≈: the same amount, converted by molar mass. Read-outs that look alike come from different tables or passages of the source.

T1 sequence (P08684 whole entry): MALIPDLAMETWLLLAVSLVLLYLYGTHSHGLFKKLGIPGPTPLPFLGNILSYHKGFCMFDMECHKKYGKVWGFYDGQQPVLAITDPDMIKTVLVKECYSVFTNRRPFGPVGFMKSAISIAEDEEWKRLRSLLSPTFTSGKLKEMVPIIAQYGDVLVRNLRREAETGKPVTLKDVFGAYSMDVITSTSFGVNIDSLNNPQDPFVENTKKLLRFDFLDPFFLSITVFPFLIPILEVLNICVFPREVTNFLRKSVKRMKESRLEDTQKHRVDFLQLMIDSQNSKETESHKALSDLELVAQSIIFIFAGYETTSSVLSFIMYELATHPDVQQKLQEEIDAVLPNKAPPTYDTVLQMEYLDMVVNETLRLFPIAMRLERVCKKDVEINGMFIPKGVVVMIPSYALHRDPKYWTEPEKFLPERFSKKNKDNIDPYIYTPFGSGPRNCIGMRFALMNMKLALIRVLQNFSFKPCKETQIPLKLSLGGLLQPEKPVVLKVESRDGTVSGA
T2 sequence (Q16602 23-461): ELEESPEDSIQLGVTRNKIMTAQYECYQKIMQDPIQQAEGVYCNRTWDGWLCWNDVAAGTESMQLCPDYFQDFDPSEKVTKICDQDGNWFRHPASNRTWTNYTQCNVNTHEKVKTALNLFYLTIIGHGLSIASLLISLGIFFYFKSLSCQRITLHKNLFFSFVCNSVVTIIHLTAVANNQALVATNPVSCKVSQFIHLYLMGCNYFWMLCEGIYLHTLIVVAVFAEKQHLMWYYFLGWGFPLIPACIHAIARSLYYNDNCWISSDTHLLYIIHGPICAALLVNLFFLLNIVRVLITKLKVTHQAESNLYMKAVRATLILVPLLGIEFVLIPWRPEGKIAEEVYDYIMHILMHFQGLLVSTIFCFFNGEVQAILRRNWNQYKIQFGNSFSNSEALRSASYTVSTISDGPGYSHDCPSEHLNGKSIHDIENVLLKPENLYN
T2 sequence (O60894 27-148): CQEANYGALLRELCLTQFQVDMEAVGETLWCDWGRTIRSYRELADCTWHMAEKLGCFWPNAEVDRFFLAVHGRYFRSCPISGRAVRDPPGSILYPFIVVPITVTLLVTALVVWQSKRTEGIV

Consider `O=C(N[C@@H]1CC[C@@H](c2cccc(F)c2F)CN(CC(F)(F)F)C1=O)N1CCC(n2c(=O)[nH]c3ncccc32)CC1` [Telcagepant], for which, in data set [1], the mitochondrial toxicity potential entry is reported as “did not raise mitochondrial safety concerns”. For the same compound, the “DILIsym ETC inhibition constant” value in data set [2] was found to be 1.74e-05 mol/mL. In data set [2] (fit of 1 hour HepG2 OCR data), the “MITOsym ETC inhibition constant” value was 0.5 mM. For the same compound, the “RNS/ROS production rate constant” value in data set [3] was 20,000 mL/mol/hr. The “induction of oxidative stress (ROS formation)” value (“induction of oxidative stress” below) in data set [4] (HepG2, 24-hour incubation) is recorded as “modest induction of oxidative stress”. The “formation of reactive metabolites that covalently bind to CYP3A4 and result in its degradation” value (“formation … in its degradation” for short) in data set [5] is given as “did not”. Further, in data set [6] (3M rat), the “Pivotal conventional nonclinical toxicology study liver findings” value was < 3× ALT/AST with no liver histopathology and the exposure margin is 15 ×. Moreover, in data set [6] (6M rat), the “Pivotal conventional nonclinical toxicology study liver findings” value is listed as “no liver safety signal” and the exposure margin turned out to be 7 ×. Further, in data set [7] (aqueous buffer, BSEP, MRP3, MRP4 vesicular transport assays), the solubility amounted to 20 µM (≈ 11.3 µg/mL).
As for `C[C@@H]1[C@H](c2ccccc2)C[C@H](NC(=O)c2cnc3c(c2)C[C@@]2(C3)C(=O)Nc3ncccc32)C(=O)N1CC(F)(F)F` [Ubrogepant], in data set [2], the “DILIsym ETC inhibition constant” value came out at 4.72e-07 mol/mL. For the same compound, the “MITOsym ETC inhibition constant” value in data set [2] (fit of 24-hour HepG2 OCR data) is given as 0.0136 mM. Also, the “RNS/ROS production rate constant” value in data set [3] was determined as 0.00016 mL/nmol/h. Further, the negative logarithm of the IC50 (pIC50) in data set [8] was 10.10. Moreover, the “induction of oxidative stress” value is reported as “not evident” in data set [4] (HepG2, 6-hour incubation) and “modest induction of oxidative stress” in data set [4] (HepG2, 24-hour incubation). Moreover, the “formation … in its degradation” value in data set [5] is given as “did not”. Moreover, in data set [6] (6M rat), the “Pivotal conventional nonclinical toxicology study liver findings” value is recorded as < 2× ALT with no liver histopathology. In data set [6] (6M rat), this compound returned an exposure margin of 70 ×. The solubility in data set [7] (BSEP assay buffer, aqueous buffer) worked out at 30 µM (≈ 16.5 µg/mL); in data set [7] (setting [9]) it was 70 µM (≈ 38.5 µg/mL).
As for `O=C(CN1C(=O)C2(CCCC2)NC[C@H]1c1cc(F)cc(F)c1)Nc1ccc2c(c1)C[C@@]1(C2)C(=O)Nc2ncccc21` [MK-3207], in data set [1], the mitochondrial toxicity potential entry is on record as “did not raise mitochondrial safety concerns”. Also, the “maximal inhibition value (ETC)” value in data set [2] (DILIsym fit of HepG2 OCR data) came to 0.35. In data set [2] (MITOsym constant translated into DILIsym, 1-hour and 24-hour HepG2 OCR data), this compound came in with an ETC inhibition coefficient of 0.347 µM. Further, in data set [3], the “RNS/ROS production rate constant” value stood at 0.00022 mL/nmol/h. In data set [8], the negative-log IC50 (pIC50) is 9.92. The “induction of oxidative stress” value is listed as “not evident” in data set [4] (HepG2, 6-hour incubation) and “modest induction of oxidative stress” in data set [4] (HepG2, 24-hour incubation). In addition, the “formation … in its degradation” value in data set [5] was “formed reactive metabolites that covalently bind to CYP3A4 and result in its degradation”. For the same compound, in data set [6] (6M rat), the “Pivotal conventional nonclinical toxicology study liver findings” value was “no liver safety signal”. Also, in data set [6] (6M rat), the exposure margin came to 25 ×. The solubility in data set [7] (BSEP assay buffer) is 30 µM (≈ 16.7 µg/mL); in data set [7] (setting [9]), 80 µM (≈ 44.6 µg/mL).
